Test results published in patent US20030208035A1, “Antifungal and/or antibacterial peptides, preparation methods, compositions containing same and methods of treating mammals and/or plants” (priority 2000, published 2003).
Bridges are numbered along the chain shown (N, C = ends). Where no end group is shown, it is not given here.

How the values were obtained:
[1] = test system: C. albicans; assay type: cell-based, Candida albicans; conditions: 24 h
Description: (§1) Candida yeasts (C. albicans, C. glabrata, C. dubliensis, C. tropicalis, C. kefyr, C. krusei and C. parapsilosis—donated by Dr. H. Koenig, Hôpital Civil, Strasbourg), fluconazole-resistant C. albicans (n^o245962, n^o2332, n^o246335 and n^o3552, donated by Drs. J.Meis and J. Mouton, University Hospital, Microbiology Department, Nijmegen, Netherlands), and Cryptoccocus neoformans (donated by Dr. H. Koenig, Hôpital Civil, Strasbourg) were seeded on Sabouraud-Cloramphenicol Agar slant gelose (Biomerieux) and left to incubate for 24 h at 30° C. (Candida sp.) and for 72 h at 37° C. (Cryptoccocus neoformans).
(§2) Some yeast colonies were placed in suspension in liquid Sabouraud medium (Biomerieux) to obtain a final concentration of 0.1 OD at 600 nm corresponding to 2.5.10^6 yeasts/ml.
(§3) The yeast suspension was adjusted to 5.10^3 yeast/ml in Sabouraud medium.
(§4) 100 μl of peptide dilutions (concentration of 50 with 0.097 μg/ml peptide) were deposited in microtitration plates. After adding […] of yeast suspension with 5.10^3 yeast/ml i.e. 500 yeasts, the test plates were incubated 24 h at 30° C. (Candida) under slow shaking or 72 h at 37° C. (Cryptoccocus).
(§5) Determination of minimal inhibiting concentrations (MIC) was made by measuring absorbency at 600 nm using a spectrophotometer-microtitration plate reader. The MIC score was set at a growth inhibition rate of 50%.

[2] = test system: Scedosporium inflatum (FSSP 7908 strain); assay: Scedosporium inflatum infected model (invasive scedosporiosis), continuous infusion by osmotic pumps; assay type: in vivo, mice; conditions: for 50% mortality, post-infection day: controls day 7
Description: Swiss OF1 mice weighing 22 g were infected by intravenous route (i.v.) with a lethal dose of Scedosporium inflatum (FSSP 7908 strain cultured on Malt Agar gelose for 7 days at 37° C.). The infecting dose was 7.10^6 spores per mouse, injected in a volume of 100 μl via the lateral tail vein.
Peptides pEM35 and pEM51 were administered continuously using ALZET 1003D osmotic pumps (flow rate: 0.97 μl/h; volume: 93 μl; infusion time: 4 days) and 1007D pumps (flow rate: 0.47 μl/h; volume: 100 μl; infusion time: 8 and half days) with intraperitoneal insertion
Groups of 8 infected mice were treated either with:
c) with pEM51 delivered i.p. by 1007D pumps at a dose of 30 mg/kg for 8 days, corresponding to a theoretical equilibrium plasma concentration of 0.3 μg/ml;
d) with pEM51 delivered i.p. by 1003D pumps at a dose of 60 mg/kg for 4 days, corresponding to a theoretical equilibrium plasma concentration of 0.6 μg/ml;
e) with pEM35 delivered i.p. by 1003D pumps at a dose of 35 mg/kg for 4 days, corresponding to a theoretical equilibrium plasma concentration of 0.35 μg/ml.
In this model of invasive scedosporiosis, inoculation of a dose of 7.10^6 spores of Scedosporium inflatum was 50% lethal on post-infection day 7. The first death occurred at 5 days and 6 days respectively after infection for the control mice group (infected, non-treated) and the placebo group (infected and with Alzet pumps). 100% mortality was observed on day 11 in the control group and 75% mortality on day 20 for the placebo group. The state of health of the mice deteriorated rapidly on and after post-infection day 3 with a morbidity score for these two groups of 28/40 and 34/40 on day 3 and 6/40 and 7/40 on post-infection day 7. Signs of encephalitis occurred on post-infection day 4.

[3] = test system: fluconazole-resistant C. albicans; assay: microbe, parasite or virus in culture; assay type: cell-based, Candida albicans; conditions: fluconazole-resistant
Description: as §1, §2, §3, §4, §5

Sequence	MIC [1] [µg/mL]	delay of onset of the first death ([2]; 35 mg/kg for 4 days i.p. by 1003D pumps) [days]	delay of 50% mortality relative to control and placebo groups ([2]; 35 mg/kg for 4 days i.p. pumps) [days]	mice alive on day 20 (out of 8) ([2]; 35 mg/kg for 4 days i.p. pumps) [mouse]	morbidity score post-infection day 5 ([2]; 35 mg/kg for 4 days i.p. pumps)	morbidity score post-infection day 15 ([2]; 35 mg/kg for 4 days i.p. pumps)	50% mortality, post-infection day ([2]; 35 mg/kg for 4 days i.p. pumps) [days]	MIC [3] [µg/mL]	therapeutic efficacy in terms of survival ([2]; 30 mg/kg for 8 days)	delay of onset of the first death ([2]; 30 mg/kg for 8 days i.p. by 1007D pumps, 7.10^6 spores i.v., 8 mice) [days]	mice alive on day 20 (out of 8) ([2]; 30 mg/kg for 8 days i.p. pumps) [mice]	morbidity score post-infection day 5 until day 14 ([2]; 30 mg/kg for 8 days i.p. pumps)	morbidity score post-infection day 20 ([2]; 30 mg/kg for 8 days i.p. pumps)	morbidity score post-infection day 4 ([2]; 30 mg/kg for 8 days i.p. pumps, 40 = all 8 mice healthy)	delay of onset of the first death ([2]; 60 mg/kg for 4 days i.p. by 1003D pumps) [days]	delay of 50% mortality in relation to control and placebo groups ([2]; 60 mg/kg for 4 days i.p. pumps) [days]	mice alive on day 20 (out of 8) ([2]; 60 mg/kg for 4 days i.p. pumps) [mice]	morbidity score post-infection day 5 ([2]; 60 mg/kg for 4 days i.p. pumps)	morbidity score post-infection day 14 ([2]; 60 mg/kg for 4 days i.p. pumps)	50% mortality, post-infection day ([2]; 60 mg/kg for 4 days i.p. pumps) [days]
DKLIGSCVWGAVNYTSNCNAECKRRGYKGGHCGSFLNVNCWCET (disulfide 7-32, 18-40, 22-42 (inferred)) [pEM35]	1.56	5	8	1	28/40	8/40	15													
DKLIGSCVWGAVNYTSNCRAECKRRGYKGGHCGSFANVNCWCET (disulfide 7-32, 18-40, 22-42 (inferred)) [pEM51]								1.56	very good therapeutic efficacy	9	5	24/40	11/40	28/40	4	5	3	30/40	6/40	12
